Measurements published in ChEMBL document CHEMBL3217488, “Preliminary in vitro evaluation of N-(benzofuroxan-5-yl)methylene benzohydrazide derivatives as potential anti-Trypanosoma cruzi agents” (Medchemcomm, 2012).

Tests used:
Trypanosoma cruzi [1] = experiment: Antitrypanosomal activity against epimastigote stage of Trypanosoma cruzi Y assessed as parasite growth inhibition at 20 ug/mL after 72 hrs by spectrophotometric analysis relative to control; type: functional; conditions: read-out: GI
Trypanosoma cruzi [2] = experiment: Antitrypanosomal activity against epimastigote stage of Trypanosoma cruzi Y assessed as parasite growth inhibition at 10 ug/mL after 72 hrs by spectrophotometric analysis relative to control; type: functional; conditions: read-out: GI
Trypanosoma cruzi [3] = experiment: Antitrypanosomal activity against epimastigote stage of Trypanosoma cruzi Y assessed as parasite growth inhibition at 50 ug/mL after 72 hrs by spectrophotometric analysis relative to control; type: functional; conditions: read-out: GI
[4] = Genotoxicity in human bronchial epithelial cells assessed as increase of micronucleated cells at 50 ug/mL after 24 hrs by acridine orange staining-based fluorescence microscopic analysis; type: toxicity; conditions: epithelial cell

| Compound | inhibition of growth at 20 µg/mL (Trypanosoma cruzi [1]) [%] | inhibition of growth at 10 µg/mL (Trypanosoma cruzi [2]) [%] | inhibition of growth at 50 µg/mL (Trypanosoma cruzi [3]) [%] | Activity [4] |
| --- | --- | --- | --- | --- |
| CN(C)c1ccc(C(=O)N/N=C/c2ccc3c(c2)no[n+]3[O-])cc1 | 7 | 4 | 10 | – |
| O=C(N/N=C/c1ccc2c(c1)no[n+]2[O-])c1ccc(I)cc1 | 81 | 54 | 60 | – |
| O=C(N/N=C/c1ccc2c(c1)no[n+]2[O-])c1ccc(O)cc1 | 3 | 0 | 47 | – |
| COc1ccc(C(=O)N/N=C/c2ccc3c(c2)no[n+]3[O-])cc1 | 69 | 36 | 76 | – |
| CCc1ccc(C(=O)N/N=C/c2ccc3c(c2)no[n+]3[O-])cc1 | 76 | 47 | 85 | – |
| O=C(N/N=C/c1ccc2c(c1)no[n+]2[O-])c1ccc(Cl)cc1 | 83 | 54 | 62 | Non-toxic |
| NS(=O)(=O)c1ccc(C(=O)N/N=C/c2ccc3c(c2)no[n+]3[O-])cc1 | 9 | 5 | 12 | – |
| O=C(N/N=C/c1ccc2c(c1)no[n+]2[O-])c1ccc(Br)cc1 | 76 | 44 | 58 | – |
| Nc1ccc(C(=O)N/N=C/c2ccc3c(c2)no[n+]3[O-])cc1 | 24 | 7 | 42 | – |
| O=C(N/N=C/c1ccc2c(c1)no[n+]2[O-])c1ccc(Cl)c(Cl)c1 | 81 | 51 | 75 | – |
| Cc1ccc(C(=O)N/N=C/c2ccc3c(c2)no[n+]3[O-])cc1 | 62 | 34 | 76 | – |
| O=C(N/N=C/c1ccc2c(c1)no[n+]2[O-])c1ccc(C(F)(F)F)cc1 | 86 | 65 | 82 | Non-toxic |
| O=C(N/N=C/c1ccc2c(c1)no[n+]2[O-])c1ccc([N+](=O)[O-])c(C(F)(F)F)c1 | 82 | 54 | 82 | – |
| N#Cc1ccc(C(=O)N/N=C/c2ccc3c(c2)no[n+]3[O-])cc1 | 39 | 8 | 44 | – |
| O=C(N/N=C/c1ccc2c(c1)no[n+]2[O-])c1ccc(F)cc1 | 79 | 45 | 78 | – |
| O=C(N/N=C/c1ccc2c(c1)no[n+]2[O-])c1ccc([N+](=O)[O-])cc1 | 73 | 13 | 73 | – |
| O=C(N/N=C/c1ccc2c(c1)no[n+]2[O-])c1ccccc1 | 82 | 46 | 95 | Non-toxic |
| O=C(Cn1ccnc1[N+](=O)[O-])NCc1ccccc1 [BENZNIDAZOLE] | 66 | 44 | 77 | – |
| CC(=O)c1ccc(C(=O)N/N=C/c2ccc3c(c2)no[n+]3[O-])cc1 | 34 | 14 | 83 | – |
| O=C(N/N=C/c1ccc2c(c1)no[n+]2[O-])c1ccc(Cl)cc1Cl | 72 | 42 | 89 | – |
| CCOc1ccc(C(=O)N/N=C/c2ccc3c(c2)no[n+]3[O-])cc1 | 68 | 32 | 66 | – |
